Common to all, as to assay: Dundee protein kinase screen
Holding throughout (assay type): biochemical

Assay [1] concerns the target CAMKKβ (Homo sapiens, UniProt Q96RR4). To be noted: read-out: %Remaining activity at 1µM NU6300. The gist of the method: (§1)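 Selectivity panel of 131 protein kinases, inhibitor tested at a single concentration of 1 µM; values are % kinase activity remaining, mean of duplicates. Re-test of selected kinases used 0.5 µM in the standard format and again after a 4 hour pre-incubation with the inhibitor.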

The target of assay [2] is DAPK1 (Homo sapiens, UniProt P53355). The conditions noted are these: DAPK1, 1µM; read-out: %Remaining activity at 1µM NU6300. The gist of the method:
as §1

Assay [3] concerns the target EPH-B1 (Homo sapiens, UniProt P54762). To be noted: EPH-B1, 1µM; read-out: %Remaining activity at 1µM NU6300. The gist of the method: as §1
The target of assay [4] is T1, EPH-B3 (Homo sapiens, UniProt P54753).
T1 sequence (P54753 34-998): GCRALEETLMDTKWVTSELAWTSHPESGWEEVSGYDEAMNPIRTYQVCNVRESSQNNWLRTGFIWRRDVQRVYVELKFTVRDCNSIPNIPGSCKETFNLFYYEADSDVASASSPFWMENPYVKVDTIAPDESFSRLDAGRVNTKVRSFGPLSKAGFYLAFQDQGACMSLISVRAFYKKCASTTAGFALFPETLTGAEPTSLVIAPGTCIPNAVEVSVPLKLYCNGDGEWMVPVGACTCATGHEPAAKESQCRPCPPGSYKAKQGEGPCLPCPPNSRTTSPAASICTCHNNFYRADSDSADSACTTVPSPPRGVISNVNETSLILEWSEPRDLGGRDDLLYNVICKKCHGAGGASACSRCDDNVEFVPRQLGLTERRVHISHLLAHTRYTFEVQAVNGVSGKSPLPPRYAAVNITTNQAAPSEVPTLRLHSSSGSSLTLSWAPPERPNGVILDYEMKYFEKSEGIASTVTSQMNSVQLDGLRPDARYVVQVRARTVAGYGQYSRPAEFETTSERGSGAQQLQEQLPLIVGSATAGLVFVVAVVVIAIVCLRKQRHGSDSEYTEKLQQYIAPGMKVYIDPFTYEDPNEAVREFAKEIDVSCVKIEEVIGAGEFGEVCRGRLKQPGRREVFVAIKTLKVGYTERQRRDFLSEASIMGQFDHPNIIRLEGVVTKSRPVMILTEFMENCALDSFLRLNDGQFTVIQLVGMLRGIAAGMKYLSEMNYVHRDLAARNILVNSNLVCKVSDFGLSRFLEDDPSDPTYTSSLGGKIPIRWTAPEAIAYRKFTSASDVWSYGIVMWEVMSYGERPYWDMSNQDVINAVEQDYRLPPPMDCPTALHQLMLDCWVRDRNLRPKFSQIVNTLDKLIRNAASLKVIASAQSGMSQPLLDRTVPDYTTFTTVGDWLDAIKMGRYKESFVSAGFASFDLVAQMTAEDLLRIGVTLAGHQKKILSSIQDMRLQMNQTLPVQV
The conditions noted are these: EPH-B3, 1µM; read-out: %Remaining activity at 1µM NU6300. A digest of the protocol: as §1

Assay [5] deals with HER4 (Homo sapiens, UniProt Q15303). The conditions noted are these: HER4, 1µM; read-out: %Remaining activity at 1µM NU6300. A digest of the protocol:
as §1

In assay [6] the target is HIPK1 (Homo sapiens, UniProt Q86Z02). The conditions noted are these: HIPK1, 1µM; read-out: %Remaining activity at 1µM NU6300. A digest of the protocol: as §1
The target in assay [7] is IR (Homo sapiens, UniProt P06213). The conditions noted are these: read-out: %Remaining activity at 1µM NU6300. A digest of the protocol:
as §1

The target in assay [8] is MLK3 (Homo sapiens, UniProt Q16584). The conditions noted are these: MLK3, 1µM; read-out: %Remaining activity at 1µM NU6300. The gist of the method:
as §1

Assay [9] deals with MNK1 (Homo sapiens, UniProt Q9BUB5). To be noted: MNK1, 1µM; read-out: %Remaining activity at 1µM NU6300. The gist of the method:
as §1

Assay [10] addresses PKCζ (Homo sapiens, UniProt Q05513). The conditions noted are these: read-out: %Remaining activity at 1µM NU6300. The gist of the method: as §1
Assay [11] has as its target PRK2 (Homo sapiens, UniProt Q16513). The conditions noted are these: PRK2, 1µM; read-out: %Remaining activity at 1µM NU6300. A digest of the protocol: as §1
Assay [12] has as its target RIPK2 (Homo sapiens, UniProt O43353). The conditions noted are these: RIPK2, 1µM; read-out: %Remaining activity at 1µM NU6300. A digest of the protocol:
as §1

Assay [13] deals with SGK1 (Homo sapiens, UniProt O00141). To be noted: SGK1, 1µM; read-out: %Remaining activity at 1µM NU6300. The gist of the method:
as §1

In assay [14] the target is SmMLCK (Homo sapiens, UniProt Q15746). To be noted: read-out: %Remaining activity at 1µM NU6300. A digest of the protocol:
as §1

Each structure is given as a SMILES string.

As usually defined, the remaining activity is the signal under treatment as a percentage of the control signal.

Sequence of MNK1 (Q9BUB5 whole entry): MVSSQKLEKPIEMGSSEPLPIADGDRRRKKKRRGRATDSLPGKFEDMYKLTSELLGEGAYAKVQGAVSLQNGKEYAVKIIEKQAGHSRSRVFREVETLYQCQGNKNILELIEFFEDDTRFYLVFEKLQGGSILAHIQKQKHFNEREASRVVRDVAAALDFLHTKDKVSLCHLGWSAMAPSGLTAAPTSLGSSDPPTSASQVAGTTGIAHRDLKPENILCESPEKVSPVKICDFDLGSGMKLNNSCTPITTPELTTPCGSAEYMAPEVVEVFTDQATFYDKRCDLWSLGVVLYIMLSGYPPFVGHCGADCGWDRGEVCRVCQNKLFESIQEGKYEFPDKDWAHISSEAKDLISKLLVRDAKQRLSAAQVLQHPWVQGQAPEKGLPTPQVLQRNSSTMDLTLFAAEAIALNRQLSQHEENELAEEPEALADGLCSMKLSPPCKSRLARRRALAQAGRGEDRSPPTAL
Sequence of PRK2 (Q16513 whole entry): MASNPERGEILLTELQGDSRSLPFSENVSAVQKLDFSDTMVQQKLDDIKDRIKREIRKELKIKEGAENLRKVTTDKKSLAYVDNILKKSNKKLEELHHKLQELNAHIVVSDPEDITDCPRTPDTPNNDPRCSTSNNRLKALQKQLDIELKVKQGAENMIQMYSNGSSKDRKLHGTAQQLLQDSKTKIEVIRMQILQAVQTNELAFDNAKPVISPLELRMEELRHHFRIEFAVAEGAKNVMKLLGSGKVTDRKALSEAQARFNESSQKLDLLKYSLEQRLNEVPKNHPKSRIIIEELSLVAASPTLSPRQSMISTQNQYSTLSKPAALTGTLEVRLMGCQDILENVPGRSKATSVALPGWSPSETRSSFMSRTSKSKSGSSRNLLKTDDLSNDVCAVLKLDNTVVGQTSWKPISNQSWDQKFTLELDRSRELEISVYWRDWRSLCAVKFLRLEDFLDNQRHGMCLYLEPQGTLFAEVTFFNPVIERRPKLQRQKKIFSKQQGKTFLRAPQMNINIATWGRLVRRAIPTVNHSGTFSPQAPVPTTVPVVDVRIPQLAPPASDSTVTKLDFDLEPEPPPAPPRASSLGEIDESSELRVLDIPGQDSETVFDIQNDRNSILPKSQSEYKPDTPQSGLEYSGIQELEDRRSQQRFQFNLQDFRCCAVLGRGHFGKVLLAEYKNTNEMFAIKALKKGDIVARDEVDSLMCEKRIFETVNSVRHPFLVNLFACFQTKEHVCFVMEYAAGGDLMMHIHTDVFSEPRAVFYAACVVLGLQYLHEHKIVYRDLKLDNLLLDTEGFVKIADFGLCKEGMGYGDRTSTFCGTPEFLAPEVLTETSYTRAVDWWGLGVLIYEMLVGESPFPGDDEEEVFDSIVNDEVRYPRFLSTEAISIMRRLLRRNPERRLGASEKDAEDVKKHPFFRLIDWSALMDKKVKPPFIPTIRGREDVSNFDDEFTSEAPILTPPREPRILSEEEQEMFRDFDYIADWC
Sequence of RIPK2 (O43353 whole entry): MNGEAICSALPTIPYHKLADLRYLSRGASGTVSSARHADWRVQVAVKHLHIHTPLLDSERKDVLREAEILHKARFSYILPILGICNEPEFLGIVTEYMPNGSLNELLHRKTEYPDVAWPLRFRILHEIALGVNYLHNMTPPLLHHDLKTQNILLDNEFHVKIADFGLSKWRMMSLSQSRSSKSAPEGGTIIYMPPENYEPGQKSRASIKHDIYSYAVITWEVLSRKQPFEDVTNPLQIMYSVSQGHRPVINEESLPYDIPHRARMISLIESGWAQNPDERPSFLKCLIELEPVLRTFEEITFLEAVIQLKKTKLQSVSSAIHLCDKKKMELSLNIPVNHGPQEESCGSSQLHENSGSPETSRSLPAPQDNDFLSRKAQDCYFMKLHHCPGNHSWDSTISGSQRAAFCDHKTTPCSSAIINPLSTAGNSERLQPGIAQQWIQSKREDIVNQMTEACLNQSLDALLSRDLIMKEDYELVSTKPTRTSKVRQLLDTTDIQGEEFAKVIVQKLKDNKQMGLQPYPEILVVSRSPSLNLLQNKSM
Sequence of PKCζ (Q05513 whole entry): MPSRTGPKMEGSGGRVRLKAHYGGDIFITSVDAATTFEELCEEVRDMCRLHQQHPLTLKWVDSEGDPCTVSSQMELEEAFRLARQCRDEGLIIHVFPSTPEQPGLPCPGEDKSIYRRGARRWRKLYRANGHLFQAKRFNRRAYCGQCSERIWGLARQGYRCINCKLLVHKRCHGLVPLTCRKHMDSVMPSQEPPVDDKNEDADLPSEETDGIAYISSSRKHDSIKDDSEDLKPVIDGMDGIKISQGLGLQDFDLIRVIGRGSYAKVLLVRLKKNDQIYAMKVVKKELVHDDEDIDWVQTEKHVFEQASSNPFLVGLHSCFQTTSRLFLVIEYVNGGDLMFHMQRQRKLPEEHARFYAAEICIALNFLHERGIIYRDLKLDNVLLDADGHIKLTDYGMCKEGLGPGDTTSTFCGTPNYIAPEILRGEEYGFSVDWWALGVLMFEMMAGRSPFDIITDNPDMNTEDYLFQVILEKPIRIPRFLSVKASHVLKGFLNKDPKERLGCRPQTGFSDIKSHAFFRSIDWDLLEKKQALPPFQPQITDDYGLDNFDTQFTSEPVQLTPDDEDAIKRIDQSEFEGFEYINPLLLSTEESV
Sequence of CAMKKβ (Q96RR4 whole entry): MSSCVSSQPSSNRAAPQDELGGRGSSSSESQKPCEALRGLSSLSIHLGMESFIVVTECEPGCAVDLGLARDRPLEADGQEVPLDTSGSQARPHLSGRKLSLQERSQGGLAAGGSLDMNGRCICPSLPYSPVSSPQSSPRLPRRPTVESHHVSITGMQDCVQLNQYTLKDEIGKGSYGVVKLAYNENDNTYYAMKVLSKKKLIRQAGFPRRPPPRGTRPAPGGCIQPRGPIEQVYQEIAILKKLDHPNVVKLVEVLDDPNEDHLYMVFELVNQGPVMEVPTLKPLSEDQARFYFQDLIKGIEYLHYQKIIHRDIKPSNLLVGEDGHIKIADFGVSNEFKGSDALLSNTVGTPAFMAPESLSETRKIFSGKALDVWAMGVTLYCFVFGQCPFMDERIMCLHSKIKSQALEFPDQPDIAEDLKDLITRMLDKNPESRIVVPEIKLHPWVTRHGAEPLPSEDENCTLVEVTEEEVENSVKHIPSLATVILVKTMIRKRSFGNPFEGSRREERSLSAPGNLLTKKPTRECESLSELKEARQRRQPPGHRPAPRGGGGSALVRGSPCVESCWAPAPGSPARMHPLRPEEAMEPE
Sequence of SGK1 (O00141 whole entry): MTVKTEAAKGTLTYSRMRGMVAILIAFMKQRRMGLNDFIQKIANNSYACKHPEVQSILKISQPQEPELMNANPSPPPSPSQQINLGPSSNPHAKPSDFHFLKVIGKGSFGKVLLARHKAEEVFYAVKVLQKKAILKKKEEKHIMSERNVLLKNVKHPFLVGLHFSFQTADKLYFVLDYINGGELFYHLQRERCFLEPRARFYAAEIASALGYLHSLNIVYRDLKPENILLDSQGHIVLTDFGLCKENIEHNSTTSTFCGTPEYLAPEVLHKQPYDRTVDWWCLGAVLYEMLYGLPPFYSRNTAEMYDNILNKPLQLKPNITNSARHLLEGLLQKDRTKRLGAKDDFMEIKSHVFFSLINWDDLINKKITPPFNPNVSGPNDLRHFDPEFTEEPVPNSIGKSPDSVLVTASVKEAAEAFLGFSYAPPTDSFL
Sequence of HER4 (Q15303 26-1308): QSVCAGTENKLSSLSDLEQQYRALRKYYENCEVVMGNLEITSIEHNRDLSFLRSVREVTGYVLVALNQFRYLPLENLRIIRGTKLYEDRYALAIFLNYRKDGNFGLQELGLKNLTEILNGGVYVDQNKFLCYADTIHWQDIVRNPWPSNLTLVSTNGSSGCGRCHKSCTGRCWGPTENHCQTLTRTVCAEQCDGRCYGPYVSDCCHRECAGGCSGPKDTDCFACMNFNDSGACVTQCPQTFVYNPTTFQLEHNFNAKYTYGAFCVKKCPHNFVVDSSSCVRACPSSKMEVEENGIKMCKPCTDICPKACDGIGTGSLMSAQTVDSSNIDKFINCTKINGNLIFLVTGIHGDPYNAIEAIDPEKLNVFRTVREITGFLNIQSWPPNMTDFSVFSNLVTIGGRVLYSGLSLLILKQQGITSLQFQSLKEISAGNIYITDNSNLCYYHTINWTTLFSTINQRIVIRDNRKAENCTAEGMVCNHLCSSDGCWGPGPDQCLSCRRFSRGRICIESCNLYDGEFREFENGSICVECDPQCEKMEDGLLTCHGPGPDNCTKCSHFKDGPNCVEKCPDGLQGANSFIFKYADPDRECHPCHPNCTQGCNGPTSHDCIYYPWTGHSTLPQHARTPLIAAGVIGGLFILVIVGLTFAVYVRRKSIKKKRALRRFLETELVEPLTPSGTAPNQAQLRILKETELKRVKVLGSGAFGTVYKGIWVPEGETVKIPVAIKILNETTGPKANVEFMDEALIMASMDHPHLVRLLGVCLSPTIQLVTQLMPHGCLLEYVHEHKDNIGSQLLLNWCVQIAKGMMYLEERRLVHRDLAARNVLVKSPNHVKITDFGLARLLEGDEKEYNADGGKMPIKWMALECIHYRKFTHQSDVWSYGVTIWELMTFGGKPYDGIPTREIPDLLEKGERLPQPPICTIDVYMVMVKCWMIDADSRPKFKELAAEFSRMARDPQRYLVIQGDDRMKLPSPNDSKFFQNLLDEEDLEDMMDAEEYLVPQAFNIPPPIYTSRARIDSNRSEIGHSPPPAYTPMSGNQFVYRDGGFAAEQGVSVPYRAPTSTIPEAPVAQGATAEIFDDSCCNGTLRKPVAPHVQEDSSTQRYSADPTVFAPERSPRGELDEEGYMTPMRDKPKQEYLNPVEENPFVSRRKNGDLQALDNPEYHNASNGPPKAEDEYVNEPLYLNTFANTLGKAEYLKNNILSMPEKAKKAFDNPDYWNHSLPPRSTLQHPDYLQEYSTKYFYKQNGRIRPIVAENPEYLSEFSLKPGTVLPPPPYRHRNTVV

Regarding `C=CS(=O)(=O)c1ccc(Nc2nc(OCC3CCCCC3)c3nc[nH]c3n2)cc1` [NU6300, 6-(cyclohexylmethoxy)-N-(4-(vinylsulfonyl)phenyl)-9H-purin-2-amine], the remaining activity at 1 µM in [1] was found to be 73%; in assay [2], 83%; in assay [3], 78%; in assay [4] it was 14%; in [5], 73%; in assay [6], 93%. For the same molecule, the remaining activity at 1 µM is 32% in [7]; 16% in assay [8]; 102% in assay [9]; 100% in [10]; 50% in assay [11]; 86% in [12]. Moreover, the remaining activity at 1 µM in [13] came to 93%; in assay [14], 85%.
